According to ChEMBL document CHEMBL1201862, “PubChem BioAssay data set” (2004):
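Grown in 96-well plates, cells were treated for 48 hours with each compound at five concentrations. Insufficient inhibition: endpoint recorded as highest concentration tested. The concentration for 50% growth inhibition is given as GI50.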 The source made the active and inactive calls. No stated cut-off is given here; in the data, active = GI50 up to about 1.1 µM and inactive = higher.

Legend:
Assay in all cases: NCI-60 cell line screen, 48 h
[1] = system: CCRF-CEM
[2] = system: COLO 205
[3] = system: DMS-114
[4] = system: EKVX
[5] = system: KM12
[6] = system: NCI-H522
[7] = system: OVCAR-3
[8] = system: OVCAR-5
[9] = system: SF-268
[10] = system: SF-295
[11] = system: SNB-19
[12] = system: SNB-75
[13] = system: SNB-78
[14] = system: U-251

Measured: GI50

Cc1cc(NS(=O)(=O)c2ccc(NC(=O)c3cccc4c(Nc5ccc(S(=O)(=O)Nc6cc(C)on6)cc5)c5ccc(Cl)cc5nc34)cc2)no1
inactive: [1] 41.9 µM | [2] 56.1 µM | [3] 38.9 µM | [4] > 100 µM | [5] 69.2 µM | [6] 31.4 µM | [7] 68.5 µM | [8] > 100 µM | [9] 34.5 µM | [10] > 100 µM | [11] 28.1 µM | [12] 19.7 µM | [13] 91.6 µM | [14] 35.5 µM

COC(=O)C1=CC(=O)C(C(=O)Nc2ccc(OC)cc2)C(c2ccccc2)O1 (configuration not stated)
inactive: [1] > 77.3 µM | [2] > 100 µM | [3] 29.7 µM | [4] 44.1 µM | [5] > 100 µM | [6] 28 µM | [7] 22.7 µM | [8] > 100 µM | [9] 17.8 µM | [10] 24 µM | [11] 18.1 µM | [12] 23.1 µM | [13] 37.9 µM | [14] 21 µM

CC(C)(C)C1CCC2c3c([nH]c4ncccc34)C3C(=O)N(c4ccccc4)C(=O)C3C2C1 (configuration not stated)
inactive: [1] 49.7 µM | [2] > 100 µM | [3] 80 µM | [4] > 100 µM | [5] > 100 µM | [6] 89.3 µM | [7] > 100 µM | [8] > 100 µM | [9] > 100 µM | [10] > 100 µM | [11] > 100 µM | [12] 24.6 µM | [13] 40.4 µM | [14] > 100 µM

CC1=C(c2cc(C(=O)Nc3ccc(Cl)cc3)nc(S)n2)Sc2ccccc2N1
inactive: [1] > 100 µM | [2] > 100 µM | [3] > 100 µM | [4] > 100 µM | [5] > 100 µM | [6] > 100 µM | [7] > 100 µM | [8] > 100 µM | [9] > 100 µM | [10] > 100 µM | [11] > 100 µM | [12] > 100 µM | [13] > 100 µM | [14] > 100 µM

CCCCCCCCCCCCCC/C(C(=O)OC)=C(/O)C(=O)OCC
inactive: [1] 42.5 µM | [2] 90.8 µM | [3] > 100 µM | [4] 37.2 µM | [5] 19.9 µM | [6] 43.3 µM | [7] > 100 µM | [8] 27 µM | [9] 25.8 µM | [10] 20.6 µM | [11] 40.9 µM | [12] 33 µM | [13] 64.1 µM | [14] 26.3 µM

NC1=NCCC1(c1ccccc1)c1ccccn1 (configuration not stated)
inactive: [1] > 100 µM | [2] > 100 µM | [3] > 100 µM | [4] > 100 µM | [5] > 100 µM | [6] > 100 µM | [7] > 100 µM | [8] > 100 µM | [9] > 100 µM | [10] > 100 µM | [11] > 100 µM | [12] > 100 µM | [13] > 100 µM | [14] > 100 µM

NC1=NC2=C(CCCC2)C(c2cccs2)S1 (configuration not stated)
inactive: [1] 55 µM | [2] > 100 µM | [3] 42.8 µM | [4] > 100 µM | [5] > 100 µM | [6] 27.9 µM | [7] 59.8 µM | [8] > 100 µM | [9] 95.1 µM | [10] > 100 µM | [11] > 100 µM | [12] > 100 µM | [13] > 100 µM | [14] > 100 µM

O=c1c(Br)cc2nc3ccccc3sc-2c1Br
inactive: [1] 23.8 µM | [2] 36.3 µM | [3] 17.9 µM | [4] > 74.6 µM | [5] > 100 µM | [6] 15.8 µM | [7] 16.9 µM | [8] > 100 µM | [9] 72.1 µM | [10] > 100 µM | [11] > 100 µM | [12] > 100 µM | [13] > 100 µM | [14] > 80.7 µM
